# Test results published in patent US20250161273A1, “PHARMACEUTICAL COMPOSITION COMPRISING DIPHENYLDIAZOLE DERIVATIVES AND METHODS OF USE” (MODAG GMBH, priority 2022, published 2025).
# Experiment: phase 1 first-in-human trial, safety and tolerability
# Type: in vivo
# Experimental: Anle138b was studied in a single-centre, double-blind, randomised, placebo-controlled single ascending dose (SAD) and multiple ascending dose (MAD) study in healthy subjects. Eligible participants were randomly assigned (1:1 for sentinel subjects and 1:5 for main group) to placebo or anle138b (dose ranging from 50 mg to 300 mg per day), respectively. In addition, the effect of food on the pharmacokinetics (PK) of anle138b in healthy subjects was examined at doses of 150 mg per day (FES, food effect study). Participants were randomized to treatment sequence (fed→fasted) or (fasted→fed). Treatment for the SAD, MAD and FES arms of the study was administered orally in hard gelatin capsules containing either 10 mg or 30 mg of anle138b with excipient (i.e., lauroyl polyoxyl-32 glycerides) or excipient only. The primary endpoints were safety and tolerability, the secondary endpoint was pharmacokinetics. Data from all randomized individuals were evaluated. [Clinicaltrials.gov-identifier: NCT04208152. EudraCT-number: 2019-004218-33] […]
# In SAD, subjects received a single dose of anle138b or placebo after fasting from all food and drink (except water) for a minimum of 8 h prior to dosing. […] The following data were analyzed: Adverse events, vital signs, safety laboratory, ECG, physical examinations, plasma concentrations of anle138b with interim PK parameter estimations (Tmax, Cmax, AUC0-24, AUC0-tau, AUC0-last and T½, where applicable). […]
# Outcome measures: The primary objective was to assess the safety and tolerability of single (SAD) and multiple (MAD) ascending doses of anle138b to healthy subjects in the fasted state and to assess the safety and tolerability of single doses of anle138b in both the fasted and fed state (FES). To this end, adverse events (AEs), clinical laboratory tests, vital signs, electrocardiograms (ECGs), QT interval corrected for heart rate using Fridericia's formula (QTcF), and physical examination findings were recorded. […]
smiles,measurement,setting,value
"Brc1cccc(-c2cc(-c3ccc4c(c3)OCO4)n[nH]2)c1 [anle138b, 3-(1,3-benzodioxol-5-yl)-5-(3-bromophenyl)-1H-pyrazole]",safety and tolerability (in words),"food effect study, 150 mg, fasted and fed conditions",safe and well tolerated
same,serious adverse events (in words),"healthy subjects, any part of the study",no serious adverse events
same,safety and tolerability (in words),"healthy subjects, up to 300 mg daily for up to 7 consecutive days",safe and well tolerated at all dose levels
